Results taken from patent publication US20050032888A1 (priority 2001, published 2005).

Tests used:
skin of older probands = experiment: Regular topical application of ascorbic acid to the skin of older probands (confocal microscopy in vivo)
Text: Status and changes of the microcapillary system and the rete peg pattern can be shown, followed, and quantified on probands quickly (in minutes) by means of modern techniques, such as confocal microscopy in vivo—i.e., free of injury, repeatedly as often as desired, and with dynamic responses to actual influences—both with respect to the density of the rete pegs or microcapillaries (number per surface unit) and with respect to their height, which makes it possible to estimate the size of the exchange surface.

[1] = cited from earlier work

In the case of `O=C1O[C@H]([C@@H](O)CO)C(O)=C1O` [ascorbic acid], the “density of rete pegs and microcapillaries” value (skin of older probands) is reported as “reversibly increased to the extent of youthful skin”, the “elasticity parameters of the skin (formation of suction blisters)” value (skin of older probands) is reported as “improvement” and the “moisture content and roughness of the horny layer” value (skin of older probands) is reported as “improvement”. The stability to heat ([1]; heat) was “sensitive to heat”, the “stability in a pure, dry state” value ([1]; pure, dry state, light, air, heat) was “relatively resistant to light, air, and heat” and the “stability in the presence of traces of heavy metal and in an alkaline environment” value ([1]; traces of heavy metal, alkaline environment, air and atmospheric oxygen) was “decomposes”.
